Experimental data from ChEMBL document CHEMBL6120978, “Anticancer activity of salinomycin quaternary phosphonium salts” (Eur J Med Chem, 2025).
Values after ≈ are worked out from the molar mass of the structure shown.

Columns and labels:
[1] = Cytotoxicity against chinese hamster V79 cells incubated for 72 hrs by MTT assay; assay type: toxicity, cell-based, Cricetulus griseus
[2] = Selectivity index, ratio of IC50 for cytotoxicity against human HaCaT cells to IC50 for cytotoxicity against human PC-3 cells; assay type: toxicity, cell-based; conditions: HaCaT cells versus PC-3 cells, read-out: Ratio IC50
[3] = Selectivity index, ratio of IC50 for cytotoxicity against human HaCaT cells to IC50 for cytotoxicity against human MDA-MB-231 cells; assay type: toxicity, cell-based; conditions: HaCaT cells versus MDA-MB-231 cells, read-out: Ratio IC50
[4] = Selectivity index, ratio of IC50 for cytotoxicity against chinese hamster V79 cells to IC50 for cytotoxicity against human A549 cells; assay type: toxicity, cell-based; conditions: V79 cells versus A549 cells, read-out: Ratio IC50
Staphylococcus aureus [5] = test: Antimicrobial activity against Staphylococcus aureus NCTC 4163 incubated for 18 hrs by twofold microdilution method; assay type: functional
PC-3 = test: Cytotoxicity against human PC-3 cells incubated for 72 hrs by MTT assay; assay type: functional, cell-based; conditions: PC-3, 72 h
SW480 = test: Cytotoxicity against human SW480 cells incubated for 72 hrs by MTT assay; assay type: functional, cell-based; conditions: SW480, 72 h
[6] = Selectivity index, ratio of IC50 for cytotoxicity against human HaCaT cells to IC50 for cytotoxicity against human SW620 cells; assay type: toxicity, cell-based; conditions: HaCaT cells versus SW620 cells, read-out: Ratio IC50
Escherichia coli = test: Antimicrobial activity against Escherichia coli ATCC 25922 incubated for 18 hrs by twofold microdilution method; assay type: functional
MDA-MB-231 = test: Cytotoxicity against human MDA-MB-231 cells incubated for 72 hrs by MTT assay; assay type: functional, cell-based; conditions: MDA-MB-231, 72 h
SW-620 = test: Cytotoxicity against human SW620 cells incubated for 72 hrs by MTT assay; assay type: functional, cell-based; conditions: SW-620, 72 h
Staphylococcus aureus [7] = test: Antimicrobial activity against Staphylococcus aureus ATCC 25923 incubated for 18 hrs by twofold microdilution method; assay type: functional
A549 = test: Cytotoxicity against human A549 cells incubated for 72 hrs by MTT assay; assay type: functional, cell-based; conditions: A549, 72 h
[8] = system: Staphylococcus epidermidis; test: Antimicrobial activity against Staphylococcus epidermidis ATCC 35984 incubated for 18 hrs by twofold microdilution method; assay type: functional
[9] = system: Staphylococcus epidermidis; test: Antimicrobial activity against Staphylococcus epidermidis ATCC 12228 incubated for 18 hrs by twofold microdilution method; assay type: functional
Staphylococcus aureus [10] = test: Antimicrobial activity against Staphylococcus aureus ATCC 29213 incubated for 18 hrs by twofold microdilution method; assay type: functional
[11] = Selectivity index, ratio of IC50 for cytotoxicity against chinese hamster V79 cells to IC50 for cytotoxicity against human PC-3 cells; assay type: toxicity, cell-based; conditions: V79 cells versus PC-3 cells, read-out: Ratio IC50
Staphylococcus aureus [12] = test: Antimicrobial activity against Staphylococcus aureus ATCC 6538 incubated for 18 hrs by twofold microdilution method; assay type: functional
[13] = Selectivity index, ratio of IC50 for cytotoxicity against chinese hamster V79 cells to IC50 for cytotoxicity against human MDA-MB-231 cells; assay type: toxicity, cell-based; conditions: V79 cells versus MDA-MB-231 cells, read-out: Ratio IC50
[14] = Selectivity index, ratio of IC50 for cytotoxicity against chinese hamster V79 cells to IC50 for cytotoxicity against human SW480 cells; assay type: toxicity, cell-based; conditions: V79 cells versus SW480 cells, read-out: Ratio IC50
[15] = Selectivity index, ratio of IC50 for cytotoxicity against human HaCaT cells to IC50 for cytotoxicity against human SW480 cells; assay type: toxicity, cell-based; conditions: HaCaT cells versus SW480 cells, read-out: Ratio IC50
[16] = Selectivity index, ratio of IC50 for cytotoxicity against chinese hamster V79 cells to IC50 for cytotoxicity against human SW620 cells; assay type: toxicity, cell-based; conditions: V79 cells versus SW620 cells, read-out: Ratio IC50
[17] = Selectivity index, ratio of IC50 for cytotoxicity against human HaCaT cells to IC50 for cytotoxicity against human A549 cells; assay type: toxicity, cell-based; conditions: HaCaT cells versus A549 cells, read-out: Ratio IC50
Pseudomonas aeruginosa = test: Antimicrobial activity against Pseudomonas aeruginosa ATCC 15442 incubated for 18 hrs by twofold microdilution method; assay type: functional
[18] = Cytotoxicity against human HaCaT cells incubated for 72 hrs by MTT assay; assay type: toxicity, cell-based

MIC (Staphylococcus aureus [5]) [µg/mL] | MIC (Escherichia coli) [µg/mL] | MIC (Staphylococcus aureus [7]) [µg/mL] | MIC [8] [µg/mL] | MIC [9] [µg/mL] | MIC (Staphylococcus aureus [10]) [µg/mL] | MIC (Staphylococcus aureus [12]) [µg/mL] | Structure (SMILES) | IC50 at 72 h [1] [nM] | selectivity ratio [2] | selectivity ratio [3] | selectivity ratio [4] | IC50 (PC-3) [nM] | IC50 (SW480) [nM] | selectivity ratio [6] | IC50 (MDA-MB-231) [nM] | IC50 (SW-620) [nM] | IC50 (A549) [nM] | selectivity ratio [11] | selectivity ratio [13] | selectivity ratio [14] | further results
2 | 256 | 2 | 2 | 2 | 2 | 2 | CC[C@@H](C(=O)[C@@H](C)[C@@H](O)[C@H](C)[C@@H]1O[C@@H]([C@@H](CC)C(=O)OCCCC[P+](c2ccccc2OC)(c2ccccc2OC)c2ccccc2OC)CC[C@@H]1C)[C@H]1O[C@]2(C=C[C@@H](O)[C@]3(CC[C@@](C)([C@H]4CC[C@](O)(CC)[C@H](C)O4)O3)O2)[C@H](C)C[C@@H]1C.[Br-] | 640 | 1.1 | 1.3 | 0.9 | 880 | 560 | 0.8 | 740 | 1250 | 700 | 0.7 | 0.9 | 1.1 | selectivity ratio [15]: 1.7; selectivity ratio [16]: 0.5; selectivity ratio [17]: 1.3; MIC (Pseudomonas aeruginosa): 256 µg/mL; IC50 at 72 h [18]: 940 nM
4 | > 256 | 4 | 8 | 16 | 64 | 4 | CC[C@@H](C(=O)[C@@H](C)[C@@H](O)[C@H](C)[C@@H]1O[C@@H]([C@@H](CC)C(=O)OCCCC[P+](c2ccc(OC)cc2)(c2ccc(OC)cc2)c2ccc(OC)cc2)CC[C@@H]1C)[C@H]1O[C@]2(C=C[C@@H](O)[C@]3(CC[C@@](C)([C@H]4CC[C@](O)(CC)[C@H](C)O4)O3)O2)[C@H](C)C[C@@H]1C.[Br-] | 670 | 0.5 | 0.8 | 1 | 2240 | 730 | 0.9 | 1420 | 1280 | 660 | 0.3 | 0.5 | 0.9 | selectivity ratio [15]: 1.5; selectivity ratio [16]: 0.5; selectivity ratio [17]: 1.7; MIC (Pseudomonas aeruginosa): > 256 µg/mL; IC50 at 72 h [18]: 1120 nM
2 | > 256 | 2 | 2 | 2 | 2 | 2 | CCCC[P+](CCCC)(CCCC)CCCCCCOC(=O)[C@H](CC)[C@H]1CC[C@H](C)[C@H]([C@@H](C)[C@H](O)[C@H](C)C(=O)[C@H](CC)[C@H]2O[C@]3(C=C[C@@H](O)[C@]4(CC[C@@](C)([C@H]5CC[C@](O)(CC)[C@H](C)O5)O4)O3)[C@H](C)C[C@@H]2C)O1.[Br-] | 650 | 0.2 | 0.6 | 0.6 | 2890 | 500 | 0.9 | 1020 | 670 | 1050 | 0.2 | 0.6 | 1.3 | selectivity ratio [15]: 1.2; selectivity ratio [16]: 1; selectivity ratio [17]: 0.6; MIC (Pseudomonas aeruginosa): > 256 µg/mL; IC50 at 72 h [18]: 620 nM
4 | > 256 | 8 | 8 | 8 | 8 | 4 | CC[C@@H](C(=O)[C@@H](C)[C@@H](O)[C@H](C)[C@@H]1O[C@@H]([C@@H](CC)C(=O)OCCCCCC[P+](c2ccc(OC)cc2)(c2ccc(OC)cc2)c2ccc(OC)cc2)CC[C@@H]1C)[C@H]1O[C@]2(C=C[C@@H](O)[C@]3(CC[C@@](C)([C@H]4CC[C@](O)(CC)[C@H](C)O4)O3)O2)[C@H](C)C[C@@H]1C.[Br-] | 600 | 0.5 | 1.1 | 0.7 | 1400 | 530 | 0.8 | 600 | 810 | 920 | 0.4 | 1 | 1.1 | selectivity ratio [15]: 1.2; selectivity ratio [16]: 0.7; selectivity ratio [17]: 0.7; MIC (Pseudomonas aeruginosa): > 256 µg/mL; IC50 at 72 h [18]: 630 nM
8 | > 256 | 8 | 8 | 8 | 8 | 8 | CC[C@@H](C(=O)[C@@H](C)[C@@H](O)[C@H](C)[C@@H]1O[C@@H]([C@@H](CC)C(=O)OCCCCCC[P+](c2ccccc2)(c2ccccc2)c2ccc(N(C)C)cc2)CC[C@@H]1C)[C@H]1O[C@]2(C=C[C@@H](O)[C@]3(CC[C@@](C)([C@H]4CC[C@](O)(CC)[C@H](C)O4)O3)O2)[C@H](C)C[C@@H]1C.[Br-] | 600 | 0.5 | 0.8 | 0.7 | 1470 | 580 | 1 | 880 | 710 | 850 | 0.4 | 0.7 | 1 | selectivity ratio [15]: 1.2; selectivity ratio [16]: 0.8; selectivity ratio [17]: 0.8; MIC (Pseudomonas aeruginosa): > 256 µg/mL; IC50 at 72 h [18]: 710 nM
8 | > 256 | 16 | 16 | 16 | 8 | 8 | CC[C@@H](C(=O)[C@@H](C)[C@@H](O)[C@H](C)[C@@H]1O[C@@H]([C@@H](CC)C(=O)OCCCCCC[P+](c2ccc(C)cc2)(c2ccc(C)cc2)c2ccc(C)cc2)CC[C@@H]1C)[C@H]1O[C@]2(C=C[C@@H](O)[C@]3(CC[C@@](C)([C@H]4CC[C@](O)(CC)[C@H](C)O4)O3)O2)[C@H](C)C[C@@H]1C.[Br-] | 670 | 0.7 | 1.3 | 0.7 | 1580 | 610 | 1.5 | 830 | 720 | 980 | 0.4 | 0.8 | 1.1 | selectivity ratio [15]: 1.7; selectivity ratio [16]: 0.9; selectivity ratio [17]: 1.1; MIC (Pseudomonas aeruginosa): > 256 µg/mL; IC50 at 72 h [18]: 1050 nM
 |  |  |  |  |  |  | COc1cccc2c1C(=O)c1c(O)c3c(c(O)c1C2=O)C[C@@](O)(C(=O)CO)C[C@@H]3O[C@H]1C[C@H](N)[C@H](O)[C@H](C)O1 [DOXORUBICIN] | 2010 |  |  |  |  |  |  | 830 |  | 630 |  |  |  | 
2 | 256 | 2 | 2 | 2 | 2 | 2 | CC[C@@H](C(=O)[C@@H](C)[C@@H](O)[C@H](C)[C@@H]1O[C@@H]([C@@H](CC)C(=O)OCCCCCC[P+](c2ccccc2)(c2ccccc2)c2ccccc2)CC[C@@H]1C)[C@H]1O[C@]2(C=C[C@@H](O)[C@]3(CC[C@@](C)([C@H]4CC[C@](O)(CC)[C@H](C)O4)O3)O2)[C@H](C)C[C@@H]1C.[Br-] | 630 | 0.4 | 0.3 | 0.9 | 1850 | 710 | 0.3 | 2650 | 2570 | 720 | 0.3 | 0.2 | 0.9 | selectivity ratio [15]: 1.1; selectivity ratio [16]: 0.2; selectivity ratio [17]: 1.1; MIC (Pseudomonas aeruginosa): 256 µg/mL; IC50 at 72 h [18]: 780 nM

Structure (SMILES) | MIC (Staphylococcus aureus [5]) [µg/mL] | MIC (Escherichia coli) [µg/mL] | MIC (Staphylococcus aureus [7]) [µg/mL] | MIC [8] [µg/mL] | MIC [9] [µg/mL] | MIC (Staphylococcus aureus [10]) [µg/mL] | MIC (Staphylococcus aureus [12]) [µg/mL] | IC50 at 72 h [1] [nM] | selectivity ratio [2] | selectivity ratio [3] | selectivity ratio [4] | IC50 (PC-3) [nM] | IC50 (SW480) [nM] | selectivity ratio [6] | IC50 (MDA-MB-231) [nM] | IC50 (SW-620) [nM] | IC50 (A549) [nM] | selectivity ratio [11] | selectivity ratio [13] | selectivity ratio [14] | further results
O=C(O)c1cn(C2CC2)c2cc(N3CCNCC3)c(F)cc2c1=O [CIPROFLOXACIN] |  | 0.007 (≈ 0.0211 µM) | 0.25 (≈ 0.754 µM) | 0.125 (≈ 0.377 µM) | 0.125 (≈ 0.377 µM) | 0.25 (≈ 0.754 µM) |  |  |  |  |  |  |  |  |  |  |  |  |  |  | 
